Experiments:
Homo sapiens [1] = assay: AUC (0 to last) in 6 to <=12 years aged pediatric patient administered as single dose; type: ADME, organism-based, Plasma; parameters: time 0 - last; conditions: in vivo
Homo sapiens [2] = assay: Toxicity in orally dosed VZV-infected patient assessed as incidence of diarrhea administered as tid; type: organism-based; conditions: in vivo, po
Homo sapiens [3] = assay: Toxicity in VZV-infected 1 to <2 years aged pediatric patient assessed as incidence of headache at 40.8 mg/kg, po tid; type: organism-based; parameters: dose 40.8 mg/kg, route oral; conditions: in vivo
Homo sapiens [4] = assay: Toxicity in HSV-infected 6 to <=12 years aged pediatric patient assessed as incidence of cough at 23.5 mg/kg, po bid; type: organism-based; parameters: dose 23.5 mg/kg, route oral; conditions: in vivo
[5] = Apparent oral clearance in 6 to <=12 years aged pediatric patient administered as single dose; type: ADME, organism-based; conditions: human, in vivo
Homo sapiens [6] = assay: Toxicity in orally dosed HSV-infected patient assessed as pyrexia administered as bid; type: organism-based; conditions: in vivo, po
Homo sapiens [7] = assay: Toxicity in orally dosed HSV-infected patient assessed as incidence of nausea administered as bid; type: organism-based; conditions: in vivo, po
Homo sapiens [8] = assay: Toxicity in HSV-infected 1 to <2 years aged pediatric patient assessed as incidence of headache at 30.9 mg/kg, po bid; type: organism-based; parameters: dose 30.9 mg/kg, route oral; conditions: in vivo
Homo sapiens [9] = assay: Toxicity in VZV-infected 6 to <=12 years aged pediatric patient assessed as at least one adverse event at 35.5 mg/kg, po tid; type: organism-based; parameters: dose 35.5 mg/kg, route oral; conditions: in vivo
Homo sapiens [10] = assay: Toxicity in VZV-infected 1 to <2 years aged pediatric patient assessed as incidence of cellulitis at 40.8 mg/kg, po tid; type: organism-based; parameters: dose 40.8 mg/kg, route oral; conditions: in vivo
Homo sapiens [11] = assay: Toxicity in orally dosed VZV-infected patient assessed as incidence of vomiting administered as tid; type: organism-based; conditions: in vivo, po
Homo sapiens [12] = assay: Toxicity in HSV-infected 2 to <6 years aged pediatric patient assessed as incidence of vomiting at 27.6 mg/kg, po bid; type: organism-based; parameters: dose 27.6 mg/kg, route oral; conditions: in vivo
Homo sapiens [13] = assay: Toxicity in HSV-infected 6 to <=12 years aged pediatric patient assessed as at least one adverse event at 23.5 mg/kg, po bid; type: organism-based; parameters: dose 23.5 mg/kg, route oral; conditions: in vivo
Homo sapiens [14] = assay: Toxicity in HSV-infected 2 to <6 years aged pediatric patient assessed as incidence of headache at 27.6 mg/kg, po bid; type: organism-based; parameters: dose 27.6 mg/kg, route oral; conditions: in vivo
Homo sapiens [15] = assay: Toxicity in VZV-infected 2 to <6 years aged pediatric patient assessed as incidence of cellulitis at 40.6 mg/kg, po tid; type: organism-based; parameters: dose 40.6 mg/kg, route oral; conditions: in vivo
Homo sapiens [16] = assay: Toxicity in VZV-infected 1 to <2 years aged pediatric patient assessed as incidence of diarrhea at 40.8 mg/kg, po tid; type: organism-based; parameters: dose 40.8 mg/kg, route oral; conditions: in vivo
Homo sapiens [17] = assay: Toxicity in orally dosed VZV-infected patient assessed as incidence of cellulitis administered as tid; type: organism-based; conditions: in vivo, po
Homo sapiens [18] = assay: Toxicity in HSV-infected 2 to <6 years aged pediatric patient assessed as incidence of diarrhea at 27.6 mg/kg, po bid; type: organism-based; parameters: dose 27.6 mg/kg, route oral; conditions: in vivo
Homo sapiens [19] = assay: Toxicity in HSV-infected 2 to <6 years aged pediatric patient assessed as pyrexia at 27.6 mg/kg, po bid; type: organism-based; parameters: dose 27.6 mg/kg, route oral; conditions: in vivo
Homo sapiens [20] = assay: Toxicity in VZV-infected 1 to <2 years aged pediatric patient assessed as incidence of vomiting at 40.8 mg/kg, po tid; type: organism-based; parameters: dose 40.8 mg/kg, route oral; conditions: in vivo
[21] = Cmax in 1 to <2 years aged pediatric patient administered as single dose; type: ADME, organism-based; conditions: human, in vivo
[22] = Tmax in 6 to <=12 years aged pediatric patient administered as single dose; type: ADME, organism-based; conditions: human, in vivo
Homo sapiens [23] = assay: Toxicity in HSV-infected 6 to <=12 years aged pediatric patient assessed as incidence of abdominal pain at 23.5 mg/kg, po bid; type: organism-based, Abdomen; parameters: dose 23.5 mg/kg, route oral; conditions: in vivo
[24] = Tmax in 1 to <2 years aged pediatric patient administered as single dose; type: ADME, organism-based; conditions: human, in vivo
Homo sapiens [25] = assay: AUC (0 to infinity) in 2 to <6 years aged pediatric patient administered as single dose; type: ADME, organism-based, Plasma; parameters: time infinity; conditions: in vivo
Homo sapiens [26] = assay: Toxicity in VZV-infected 2 to <6 years aged pediatric patient assessed as pyrexia at 40.6 mg/kg, po tid; type: organism-based; parameters: dose 40.6 mg/kg, route oral; conditions: in vivo
Homo sapiens [27] = assay: Toxicity in HSV-infected 6 to <=12 years aged pediatric patient assessed as incidence of diarrhea at 23.5 mg/kg, po bid; type: organism-based; parameters: dose 23.5 mg/kg, route oral; conditions: in vivo
[28] = Half life in 1 to <2 years aged pediatric patient administered as single dose; type: ADME, organism-based; conditions: human, in vivo
Homo sapiens [29] = assay: Toxicity in orally dosed VZV-infected patient assessed as incidence of pruritus administered as tid; type: organism-based; conditions: in vivo, po
Homo sapiens [30] = assay: Toxicity in VZV-infected 1 to <2 years aged pediatric patient assessed as incidence of abdominal pain at 40.8 mg/kg, po tid; type: organism-based, Abdomen; parameters: dose 40.8 mg/kg, route oral; conditions: in vivo
Homo sapiens [31] = assay: Toxicity in HSV-infected 6 to <=12 years aged pediatric patient assessed as incidence of headache at 23.5 mg/kg, po bid; type: organism-based; parameters: dose 23.5 mg/kg, route oral; conditions: in vivo
Homo sapiens [32] = assay: Toxicity in VZV-infected 6 to <=12 years aged pediatric patient assessed as incidence of pruritus at 35.5 mg/kg, po tid; type: organism-based; parameters: dose 35.5 mg/kg, route oral; conditions: in vivo
Homo sapiens [33] = assay: Toxicity in VZV-infected 1 to <2 years aged pediatric patient assessed as incidence of nausea at 40.8 mg/kg, po tid; type: organism-based; parameters: dose 40.8 mg/kg, route oral; conditions: in vivo
Homo sapiens [34] = assay: Toxicity in HSV-infected 6 to <=12 years aged pediatric patient assessed as incidence of vomiting at 23.5 mg/kg, po bid; type: organism-based; parameters: dose 23.5 mg/kg, route oral; conditions: in vivo
Homo sapiens [35] = assay: Toxicity in VZV-infected 2 to <6 years aged pediatric patient assessed as incidence of headache at 40.6 mg/kg, po tid; type: organism-based; parameters: dose 40.6 mg/kg, route oral; conditions: in vivo
Homo sapiens [36] = assay: Toxicity in HSV-infected 2 to <6 years aged pediatric patient assessed as at least one adverse event at 27.6 mg/kg, po bid; type: organism-based; parameters: dose 27.6 mg/kg, route oral; conditions: in vivo
Homo sapiens [37] = assay: Toxicity in HSV-infected 2 to <6 years aged pediatric patient assessed as incidence of nausea at 27.6 mg/kg, po bid; type: organism-based; parameters: dose 27.6 mg/kg, route oral; conditions: in vivo
[38] = Tmax in 2 to <6 years aged pediatric patient administered as single dose; type: ADME, organism-based; conditions: human, in vivo
Homo sapiens [39] = assay: Toxicity in HSV-infected 1 to <2 years aged pediatric patient assessed as incidence of abdominal pain at 30.9 mg/kg, po bid; type: organism-based, Abdomen; parameters: dose 30.9 mg/kg, route oral; conditions: in vivo
Homo sapiens [40] = assay: AUC (0 to infinity) in 1 to <2 years aged pediatric patient administered as single dose; type: ADME, organism-based, Plasma; parameters: time infinity; conditions: in vivo
Homo sapiens [41] = assay: Toxicity in VZV-infected 1 to <2 years aged pediatric patient assessed as pyrexia at 40.8 mg/kg, po tid; type: organism-based; parameters: dose 40.8 mg/kg, route oral; conditions: in vivo
Homo sapiens [42] = assay: Toxicity in VZV-infected 1 to <2 years aged pediatric patient assessed as at least one adverse event at 40.8 mg/kg, po tid; type: organism-based; parameters: dose 40.8 mg/kg, route oral; conditions: in vivo
Homo sapiens [43] = assay: Toxicity in HSV-infected 2 to <6 years aged pediatric patient assessed as incidence of abdominal pain at 27.6 mg/kg, po bid; type: organism-based, Abdomen; parameters: dose 27.6 mg/kg, route oral; conditions: in vivo

AUC (Homo sapiens [1]): 7.98 ug/hr.ml | CL/F [5]: 578 mL/min | Cmax [21]: 3060 ng/mL | Tmax [22]: 1 h | Tmax [24]: 1.08 h | AUC (Homo sapiens [25]): 7.23 ug/hr.ml | half-life [28]: 1.2 h | Tmax [38]: 1.07 h | AUC (Homo sapiens [40]): 7.16 ug/hr.ml
Structure (SMILES): Nc1nc2c(ncn2CCC(CO)CO)c(=O)[nH]1 [PENCICLOVIR]
Activity (Homo sapiens [2]): 11.3% | Activity (Homo sapiens [3]): 0% | Activity (Homo sapiens [4]): 5.6% | Activity (Homo sapiens [6]): 4.3% | Activity (Homo sapiens [7]): 6.4% | Activity (Homo sapiens [8]): 0% | Activity (Homo sapiens [9]): 43.8% | Activity (Homo sapiens [10]): 0% | Activity (Homo sapiens [11]): 9.4% | Activity (Homo sapiens [12]): 6.3% | Activity (Homo sapiens [13]): 66.7% | Activity (Homo sapiens [14]): 0% | Activity (Homo sapiens [15]): 5.3% | Activity (Homo sapiens [16]): 11.1% | Activity (Homo sapiens [17]): 3.8% | Activity (Homo sapiens [18]): 6.3% | Activity (Homo sapiens [19]): 0% | Activity (Homo sapiens [20]): 27.8% | Activity (Homo sapiens [23]): 5.6% | Activity (Homo sapiens [26]): 5.3% | Activity (Homo sapiens [27]): 11.1% | Activity (Homo sapiens [29]): 3.8% | Activity (Homo sapiens [30]): 0% | Activity (Homo sapiens [31]): 22.2% | Activity (Homo sapiens [32]): 6.3% | Activity (Homo sapiens [33]): 0% | Activity (Homo sapiens [34]): 11.1% | Activity (Homo sapiens [35]): 0% | Activity (Homo sapiens [36]): 50% | Activity (Homo sapiens [37]): 0% | Activity (Homo sapiens [39]): 0% | Activity (Homo sapiens [41]): 11.1% | Activity (Homo sapiens [42]): 38.9% | Activity (Homo sapiens [43]): 6.3%
